Values of other authors, collected in patent publication US20170304164A1, “COMPOSITIONS, APPARATUS AND METHODS FOR MONITORING AND IMPROVING ORAL HEALTH” (Berkeley NOX Limited, priority 2016, published 2017).

Assays:
Desulfovibrio spp. = conditions: 0.2 mM nitrate
Streptococcus mutans = conditions: 0.2 mM nitrite, acidity levels below pH 7
Porphyromonas gingivalis = conditions: under acidic conditions
Fusobacterium nucleatum = conditions: under acidic conditions
Eikenella corrodens = conditions: under acidic conditions

Structure (SMILES)	growth (Desulfovibrio spp.)	effect on bacteria (Streptococcus mutans)	growth (Porphyromonas gingivalis)	growth (Fusobacterium nucleatum)	growth (Eikenella corrodens)
O=[N+]([O-])O [nitrate]	growth is inhibited	–	–	–	–
O=NO [nitrite]	–	effective complete killing	inhibited the growth	inhibited the growth	inhibited the growth
